Test results taken from ChEMBL document CHEMBL1157174, “Electronically stabilized versions of the antimalarial acetal trioxanes artemether and artesunate” (Bioorg Med Chem, 2008).
The source made the active and inactive calls. The rule behind the calls is not given here.

These compounds were tested on Plasmodium berghei (assay: Antimalarial activity against Plasmodium berghei infected mice (Mus musculus) at 30 mg/kg peroral dose).
Format: functional, organism-based
Set-up: dose 30 mg/kg
In the case of `CCCCCCCCCCc1ccc(C(=O)O[C@@H]2O[C@@H]3O[C@]4(C)CC[C@H]5[C@H](C)CC[C@H]([C@@]35OO4)[C@@]2(C)S(C)(=O)=O)cc1`, the Activity is reported as “inactive”. With `C[C@@H]1CC[C@@H]2[C@]34OO[C@@](C)(CC[C@@H]13)O[C@H]4OC(O)[C@]2(C)F` (stereo partly specified) the Activity was “inactive”. With `CO[C@H]1O[C@@H]2O[C@]3(C)CC[C@H]4[C@H](C)CC[C@@H]([C@@]1(C)F)[C@@]24OO3` the Activity was “inactive”. With `CCCCCc1ccc(C(=O)O[C@@H]2O[C@@H]3O[C@]4(C)CC[C@H]5[C@H](C)CC[C@H]([C@@]35OO4)[C@@]2(C)S(=O)(=O)c2ccccc2)cc1` the Activity was “inactive”. For `C[C@@H]1CC[C@@H]2[C@]34OO[C@@](C)(CC[C@@H]13)O[C@H]4O[C@@H](O)[C@]2(C)S(C)(=O)=O`, the Activity was “inactive”. `CO[C@@H]1O[C@@H]2O[C@]3(C)CC[C@H]4[C@H](C)CC[C@@H]([C@@]1(C)F)[C@@]24OO3` was tested, and the Activity was “inactive”. For `C[C@@H]1CC[C@@H]2[C@]34OO[C@@](C)(CC[C@@H]13)O[C@H]4O[C@H](O)[C@@]2(C)S(C)(=O)=O`, the Activity was “inactive”. `C[C@@H]1CC[C@@H]2[C@]34OO[C@@](C)(CC[C@@H]13)O[C@H]4OC(=O)[C@]2(C)S(C)(=O)=O` was tested, and the Activity was “inactive”. For `C[C@@H]1CC[C@@H]2[C@]34OO[C@@](C)(CC[C@@H]13)O[C@H]4OC(=O)[C@@]2(C)S(C)(=O)=O`, the Activity was “inactive”. `C[C@@H]1CC[C@@H]2[C@]34OO[C@@](C)(CC[C@@H]13)O[C@H]4O[C@@H](O)[C@]2(C)S(=O)(=O)c1ccccc1` was tested, and the Activity was “inactive”. With `CCCCCCCCCCCCCCCCCC(=O)O[C@@H]1O[C@@H]2O[C@]3(C)CC[C@H]4[C@H](C)CC[C@H]([C@@]24OO3)[C@@]1(C)S(C)(=O)=O` the Activity was “inactive”.
